From patent US12036301B2, “Deodorant and antiperspirant compositions” (The Procter & Gamble Company, priority 2017, dated 2024)
Counter-ions that a name gives are not always drawn.

Key:
[1] = test system: two key underarm bacteria strains; test: Raw material microbial inhibition, verbal summary for both strains; format: cell-based, C. mucofaciens and S. epidermidis; settings: verbal summary of Table 2, both strains
Text: The data in Table 1 above was generated with the following test method.
It is understood that when not specifically noted in this procedure: • a) All materials, reagents and equipment required for this procedure are of appropriate design and condition of cleanliness and/or sterility as determined by their intended use. • b) The operator has been trained in aseptic technique and has been qualified to perform the procedure and accurately interpret the results. • c) All media required for this procedure was manufactured by a reputable commercial source eg. […] Procedure: (all Procedures Performed in Anaerobic Chamber Except where Noted) 1. […] 2. […] Microbial Strains • Staphylococcus epidermidis (clinical isolate) • Corynebacterium mucofaciens (clinical isolate) 4. Test Procedure Inoculum Preparation • Prior to testing streak organisms for isolation on BHI with 1% Tween 80 plates, wrap with parafilm and place in 37° C. incubator. When isolated colonies appear remove one representative colony from each plate and place each in 5 ml of BHI with 1% Tween 80 media. Incubate at 37° C. with shaking overnight. Inoculate 20 ml BHI with 1% Tween 80 (per 96 deep well plate to be tested) with 20 ul of the overnight culture (1-1000 dilution). Master Plate Preparation • Compounds/formulations to be tested are diluted across a 96 deep well plate as shown below (for a 1% stock solution). […] 800 ul each 1% stock solution+positive control are added to wells C1 through H1. […] 400 ul is then removed from #1 well added to the #2 well and mixed. This is then continued across the plate resulting in a 50% dilution between wells across the plate (this can be easily accomplished with an automatic 8 channel Matrix pipette set to withdraw, dispense and mix).
(§1) In row A of a 96 deep well plate pipette 180 ul of sterile BHI with 1% Tween 80 as a negative growth control. All other wells receive 180 ul of inoculum. From the master plate introduce 20 ul to the corresponding row in the test plate using an 8-channel pipette. Loaded plates are placed on a plate shaker in the 37° C. incubator and incubated overnight. The next day read the O.D. 600 on a plate reader. The MIC is the last well from the right that has no bacterial growth.

C. mucofaciens = test: Tier 1 Anaerobic MIC Assay; format: cell-based, Corynebacterium mucofaciens (clinical isolate); settings: raw material, BHI with 1% Tween 80, 37° C. overnight
Text: (§2) 1. Tier 1 Anaerobic MIC Assay
(§3) The data in Table 1 above was generated with the following test method. The purpose of this assay is to determine if a compound or formulation has an antimicrobial effect in vitro.
(§4) It is understood that when not specifically noted in this procedure: • a) All materials, reagents and equipment required for this procedure are of appropriate design and condition of cleanliness and/or sterility as determined by their intended use. • b) The operator has been trained in aseptic technique and has been qualified to perform the procedure and accurately interpret the results. • c) All media required for this procedure was manufactured by a reputable commercial source eg. Difco, Merck etc. and has been stored and prepared as per manufacturer's instructions. • d) All routine laboratory controls, including but not limited to, media function and growth promotion tests, verification of sterility and use of positive and negative controls are being conducted. Procedure: (all Procedures Performed in Anaerobic Chamber Except where Noted) 1. Apparatus • Incubator at 37° C.; 20-200 ul 12 channel pipette; 5-50 ul 12 channel pipette; 1250 ul 8 channel Thermo Scientific Matrix pipette; 96 well plate shaker (located in incubator); Beckman Coulter deep well cap mat #267005; Beckman Coulter deep 96 well plates #267007; Falcon 96 well tissue culture plates #353072; Vortexer; Culture tubes/caps Disposable sterile gloves; Sterile petri dishes; Standard microbiological lab equipment (sterile pipettes, syringes, tips, loops, etc.); Glass bottles/flasks for media; Autoclave; Parafilm; Spectrophotometer. 2. Media • 0.9% or 0.85% saline solution • BHI agar supplemented with 1% Tween 80 • BHI media supplemented with 1% Tween 80 3. Microbial Strains • Staphylococcus epidermidis (clinical isolate) • Corynebacterium mucofaciens (clinical isolate) 4. Test Procedure Inoculum Preparation • Prior to testing streak organisms for isolation on BHI with 1% Tween 80 plates, wrap with parafilm and place in 37° C. incubator. When isolated colonies appear remove one representative colony from each plate and place each in 5 ml of BHI with 1% Tween 80 media. Incubate at 37° C. with shaking overnight. Inoculate 20 ml BHI with 1% Tween 80 (per 96 deep well plate to be tested) with 20 ul of the overnight culture (1-1000 dilution). Master Plate Preparation • Compounds/formulations to be tested are diluted across a 96 deep well plate as shown below (for a 1% stock solution). 800 ul of 0.85% saline is added to wells A1 and B1 (as these will be the negative and positive control respectively). 800 ul each 1% stock solution+positive control are added to wells C1 through H1. 400 ul 0.85% saline are added to all other wells. 400 ul is then removed from #1 well added to the #2 well and mixed. This is then continued across the plate resulting in a 50% dilution between wells across the plate (this can be easily accomplished with an automatic 8 channel Matrix pipette set to withdraw, dispense and mix).
as §1

S. epidermidis = test: Tier 1 Anaerobic MIC Assay; format: cell-based, Staphylococcus epidermidis (clinical isolate); settings: raw material, BHI with 1% Tween 80, 37° C. overnight
Text: as §2, §3, §4, §1

[2] = iron binding affinity; NIST Standard Reference Database 46; cited from earlier work
[3] = intrinsic water solubility independent of pH

Compound | performance against the bacteria as raw materials [1] | microbial inhibition concentration (MIC), C. mucofaciens (C. mucofaciens) [ppm] | microbial inhibition concentration (MIC), S. epidermidis (S. epidermidis) [ppm] | Log K1 [2] | further results
O=C([O-])[O-].[Ca+2] [Ca Carbonate, calcium carbonate] | performing moderately well | >2500 | >2500 | – | –
[Ca+2].[Cl-].[Cl-] [CaCl] | – | >50000 | >50000 | – | –
CC(C)=CCCC(C)=CC=O [Citral] | performing well | – | – | – | –
O=C(O)CC(O)(CC(=O)O)C(=O)O [Citric Acid] | – | – | – | 11 | –
CC(=O)N(O)CCCCCNC(=O)CCC(=O)N(O)CCCCCNC(=O)CCC(=O)N(O)CCCCCN [Desferrioxamine] | – | – | – | 31 | –
O=C(O)CN(CCN(CC(=O)O)CC(=O)O)CCN(CC(=O)O)CC(=O)O [Diethylenetriaminepentaacetic acid] | – | – | – | 28 | –
O=P(O)(O)CN(CCN(CP(=O)(O)O)CP(=O)(O)O)CCN(CP(=O)(O)O)CP(=O)(O)O [Diethylenetriaminepentakis(methylenephosphonic acid)] | – | – | – | 23 | –
COC(=O)CCC(=O)OC [Dimethyl Succinate] | performing well | – | – | – | –
CCCCC(CC)COCC(O)CO (stereo not shown) [Ethylhexyl glycerin] | – | 12500 | 12500 | – | –
C=CCc1ccc(O)c(OC)c1 [Eugenol] | performing well | – | – | – | –
CCCCCCCCC(CO)CCCCCC (stereo not shown) [Hexyl Decanol] | – | 6062 | 3031 | – | –
CC(C(=O)O)N(CC(=O)O)CC(=O)O (stereo not shown) [Methylglycine diacetic acid (MGDA), Methylglycine diacetic acid] | – | – | – | 16 | –
[Cl-].[Na+] [NaCl] | – | >25000 | >25000 | – | –
Cc1cc(CC(C)CC(C)(C)C)n(O)c(=O)c1.NCCO (stereo not shown) [Piroctone olamine, 1-Hydroxy-4-methyl-6-(2,4,4-trimethylpentyl)-2-pyridone monoethanolamine salt] | perform particularly well | – | – | – | LogWSo [3]: −3.22
C=CCCCCCCCCC(=O)N[C@@H](Cc1ccccc1)C(=O)O [Sepiwhite] | performing well | 2000 | 1000 | – | –
CCOC(=O)CC(O)(CC(=O)OCC)C(=O)OCC [Triethyl citrate] | performing well | – | – | – | –
